From patent EP0308190A2, “Ultra mild skin cleansing toilet bar with selected mixed polymers” (THE PROCTER & GAMBLE COMPANY, priority 1987, dated 1989)

Tested on: skin epidermis

Relative Skin Barrier Penetration Value: 40
Substance: Cocoyl Isethionate
